Experimental data taken from patent US11866405B2, “Substituted indazoles as IRAK4 inhibitors” (AstraZeneca AB, priority 2020, dated 2024).

How the values were obtained:
[1] = biological target: IRAK4 auto-phosphorylation (Homo sapiens (Human), UniProt Q9NWZ3); experiment: IRAK4 phosphorylation cell assay in IL-1β-stimulated Karpas-299 cells; format: cell-based; conditions: IL-1β 22.7 ng/mL, pIRAK4 (Thr345/Ser346), geometric mean of at least 2 experiments
Summary of the method: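 Karpas-299 cells were preincubated 1 h at 37 °C with compound (10-point half-log series, top 30 μM), then stimulated 10 min with 22.7 ng/mL IL-1β. Cells were fixed and stained for pIRAK4 (Thr345/Ser346), and per-cell fluorescence was quantified by high-content imaging. IC50 values are geometric means of at least 2 experiments.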

[2] = biological target: human recombinant IRAK4 protein (Homo sapiens (Human), UniProt Q9NWZ3); experiment: IRAK4 enzyme assay (mass spectrometry readout); format: biochemical; conditions: 3 mM ATP, 0.2 nM enzyme; geometric mean of at least n=2, * single experiment
Chain of human recombinant IRAK4 protein (Q9NWZ3 whole entry): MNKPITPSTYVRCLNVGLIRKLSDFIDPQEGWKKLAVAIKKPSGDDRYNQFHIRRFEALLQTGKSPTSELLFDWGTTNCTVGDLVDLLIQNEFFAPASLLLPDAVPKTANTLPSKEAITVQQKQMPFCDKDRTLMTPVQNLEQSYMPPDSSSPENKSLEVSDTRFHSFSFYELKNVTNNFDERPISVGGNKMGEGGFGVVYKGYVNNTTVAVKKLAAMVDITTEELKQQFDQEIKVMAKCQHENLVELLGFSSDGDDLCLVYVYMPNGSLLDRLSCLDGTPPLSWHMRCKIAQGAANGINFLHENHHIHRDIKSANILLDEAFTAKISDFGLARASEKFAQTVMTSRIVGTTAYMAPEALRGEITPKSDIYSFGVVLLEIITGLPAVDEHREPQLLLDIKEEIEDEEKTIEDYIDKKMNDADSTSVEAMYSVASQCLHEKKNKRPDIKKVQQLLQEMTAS
Summary of the method: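 0.2 nM IRAK4 preincubated 15 min at room temperature with compound (10-point half-log series, top 1 μM or 10 μM) in pH 7.4 Tris buffer with 3 mM ATP; 10 μM peptide substrate added, 2 h at room temperature, formic acid stop. Phospho/unphospho peptide ratio by LC-MS/MS; potency from curve fit, geometric mean of n≥2 or single run.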

Chain of IRAK4 auto-phosphorylation (Q9NWZ3 whole entry): as above

Question: Which IC50 [1] does the source give for `COc1cc2nn([C@H]3CC[C@@H](NC(=O)C4CC4)CC3)cc2cc1C(=O)Nc1cnn2cnccc12` [Example 27, 2-((1s,4s)-4-(Cyclopropanecarboxamido)cyclohexyl)-6-methoxy-N-(pyrazolo[1,5-c]pyrimidin-3-yl)-2H-indazole-5-carboxamide] here?
Answer: The IC50 was 67 nM.

Question: And the IC50 [2]?
Answer: The IC50 was 4.4 nM.

Question: Which IC50 [1] does the source give for `O=C(Nc1cnn2cccnc12)c1cc2cn([C@H]3CC[C@@H](O)CC3)nc2cc1OC1CC1` [Example 56] here?
Answer: Its IC50 is 79 nM.

Question: And the IC50 [2]?
Answer: The IC50 was 1.2 nM.

Question: What does the source list for `COc1cc2nn([C@H]3CC[C@H](N(C)C(=O)[C@@H](C)O)CC3)cc2cc1C(=O)Nc1cnn2cccnc12` [Example 58]?
Answer: IC50 [1]: 16 nM; IC50 [2]: 0.9 nM

Question: How did the IC50 [1] turn out when `COc1cc2nn([C@H]3CC[C@H](N(C)C(=O)[C@H](C)O)CC3)cc2cc1C(=O)Nc1cnn2cccnc12` [Example 59, 2-((1S,4r)-4-((S)-2-Hydroxy-N-methylpropanamido)cyclohexyl)-6-methoxy-N-(pyrazolo[1,5-a]pyrimidin-3-yl)-2H-indazole-5-carboxamide] was run?
Answer: Its IC50 is 40 nM.

Question: And the IC50 [2]?
Answer: Its IC50 is 1.3 nM.

Question: For `O=C(Nc1cnc2cccnn12)c1cc2cn([C@H]3CC[C@H](O)CC3)nc2cc1OC1CC1` [Example 84, 6-Cyclopropoxy-2-((1r,4r)-4-hydroxycyclohexyl)-N-(imidazo[1,2-b]pyridazin-3-yl)-2H-indazole-5-carboxamide], which IC50 [1] is on record?
Answer: Its IC50 is 40 nM.

Question: And the IC50 [2]?
Answer: Its IC50 is 0.4 nM.

Question: Which IC50 [1] does the source give for `O=C(Nc1cnc2cccnn12)c1cc2cn([C@H]3CC[C@@H](O)CC3)nc2cc1OC1CC1` [Example 85, 6-Cyclopropoxy-2-((1s,4s)-4-hydroxycyclohexyl)-N-(imidazo[1,2-b]pyridazin-3-yl)-2H-indazole-5-carboxamide] here?
Answer: Its IC50 is 50 nM.

Question: What about the IC50 [2] of the same compound?
Answer: Its IC50 is 0.8 nM.

Question: For `COc1cc2nn([C@H]3CC[C@@]4(CC3)CC(=O)N(C)C4)cc2cc1C(=O)Nc1cnn2cccnc12` [Example 87, 6-methoxy-2-((5s,8s)-2-methyl-3-oxo-2-azaspiro[4.5]decan-8-yl)-N-(pyrazolo[1,5-a]pyrimidin-3-yl)-2H-indazole-5-carboxamide], which IC50 [1] is on record?
Answer: Its IC50 is 26 nM.

Question: And the IC50 [2]?
Answer: Its IC50 is 0.2 nM.

Question: What does the source list for `COc1cc2nn([C@@H]3CC[C@H](O)C[C@H]3C)cc2cc1C(=O)Nc1cnc2cccnn12` [Example 88, 2-((1R,2R,4S)-4-hydroxy-2-methylcyclohexyl)-N-(imidazo[1,2-b]pyridazin-3-yl)-6-methoxy-2H-indazole-5-carboxamide]?
Answer: IC50 [1]: 44 nM; IC50 [2]: 1.3 nM

Question: For `COc1cc2nn([C@H]3CC[C@@H](O)C[C@@H]3C)cc2cc1C(=O)Nc1cnc2cccnn12` [Example 90, 2-((1S,2S,4R)-4-hydroxy-2-methylcyclohexyl)-N-(imidazo[1,2-b]pyridazin-3-yl)-6-methoxy-2H-indazole-5-carboxamide], which IC50 [1] is on record?
Answer: The IC50 was 101 nM.

Question: And the IC50 [2]?
Answer: The IC50 was 5.2 nM.

Question: What does the source list for `COc1cc2nn([C@H]3CC[C@H](N(C)C(=O)[C@@H](C)O)CC3)cc2cc1C(=O)Nc1cnc2cccnn12` [Example 95, 2-((1R,4r)-4-((R)-2-Hydroxy-N-methylpropanamido)cyclohexyl)-N-(imidazo[1,2-b]pyridazin-3-yl)-6-methoxy-2H-indazole-5-carboxamide]?
Answer: IC50 [1]: 7 nM; IC50 [2]: 0.2 nM

Question: `COc1cc2nn([C@H]3CC[C@H](N(C)C(=O)C4CC4)CC3)cc2cc1C(=O)Nc1cnn2cnccc12` [Example 96, 6-Methoxy-2-((1r,4r)-4-(N-methylcyclopropanecarboxamido)cyclohexyl)-N-(pyrazolo[1,5-c]pyrimidin-3-yl)-2H-indazole-5-carboxamide] was tested. Which IC50 [1] did it give?
Answer: The IC50 was 15 nM.

Question: And the IC50 [2]?
Answer: The IC50 was 0.5 nM.

Question: What does the source list for `COc1cc2nn(C3CCC(N(C)C(=O)[C@H]4C[C@H](O)C4)CC3)cc2cc1C(=O)Nc1cnn2cccnc12` (stereo partly drawn) [Example 97, 2-((1R,4r)-4-((1r,3R)-3-hydroxy-N-methylcyclobutane-1-carboxamido)cyclohexyl)-6-methoxy-N-(pyrazolo[1,5-a]pyrimidin-3-yl)-2H-indazole-5-carboxamide]?
Answer: IC50 [1]: 15 nM; IC50 [2]: 0.7 nM

Question: Which results are given for `COc1cc2nn(C3CCC(N(C)C(=O)C4CC(O)C4)CC3)cc2cc1C(=O)Nc1cnn2cnccc12` [Example 98, 2-((1R,4r)-4-((1s,3S)-3-hydroxy-N-methylcyclobutane-1-carboxamido)cyclohexyl)-6-methoxy-N-(pyrazolo[1,5-c]pyrimidin-3-yl)-2H-indazole-5-carboxamide]?
Answer: IC50 [1]: 20 nM; IC50 [2]: 0.6 nM

Question: What does the source list for `COc1cc2nn([C@H]3CC[C@H](N(C)C(=O)C(C)(C)O)CC3)cc2cc1C(=O)Nc1cnn2cnccc12` [Example 99, 2-((1r,4r)-4-(2-Hydroxy-N,2-dimethylpropanamido)cyclohexyl)-6-methoxy-N-(pyrazolo[1,5-c]pyrimidin-3-yl)-2H-indazole-5-carboxamide]?
Answer: IC50 [1]: 35 nM; IC50 [2]: 1.2 nM

Question: For `CO[C@H]1C[C@H](Oc2cc3nn(C4CCC5(CC4)CN(C(C)=O)C5)cc3cc2C(=O)Nc2cnc3cccnn23)C1` [Example 100, 2-(2-Acetyl-2-azaspiro[3.5]nonan-7-yl)-N-(imidazo[1,2-b]pyridazin-3-yl)-6-((1r,3r)-3-methoxycyclobutoxy)-2H-indazole-5-carboxamide], which IC50 [1] is on record?
Answer: The IC50 was 6 nM.

Question: What about the IC50 [2] of the same compound?
Answer: The IC50 was less than 0.03 nM.

Question: Which results are given for `CO[C@H]1C[C@@H](Oc2cc3nn(C4CCC5(CC4)CN(C(C)=O)C5)cc3cc2C(=O)Nc2cnc3cccnn23)C1` [Example 101, 2-(2-Acetyl-2-azaspiro[3.5]nonan-7-yl)-N-(imidazo[1,2-b]pyridazin-3-yl)-6-((1s,3s)-3-methoxycyclobutoxy)-2H-indazole-5-carboxamide]?
Answer: IC50 [1]: 31 nM; IC50 [2]: < 0.4 nM

Question: Which results are given for `COc1cc2nn([C@H]3CC[C@H](n4ccnn4)CC3)cc2cc1C(=O)Nc1cnc2cccnn12` [Example 102, 2-((1r,4r)-4-(1H-1,2,3-triazol-1-yl)cyclohexyl)-N-(imidazo[1,2-b]pyridazin-3-yl)-6-methoxy-2H-indazole-5-carboxamide]?
Answer: IC50 [1]: 19 nM; IC50 [2]: 0.7 nM

Question: Which results are given for `COc1cc2nn([C@H]3CC[C@H](n4nccn4)CC3)cc2cc1C(=O)Nc1cnc2cccnn12` [Example 103, 2-((1r,4r)-4-(2H-1,2,3-triazol-2-yl)cyclohexyl)-N-(imidazo[1,2-b]pyridazin-3-yl)-6-methoxy-2H-indazole-5-carboxamide]?
Answer: IC50 [1]: 17 nM; IC50 [2]: 0.6 nM

Question: What does the source list for `COc1cc2nn([C@H]3CC[C@H](N(C)C(=O)C[C@H](C)O)CC3)cc2cc1C(=O)Nc1cnn2cccnc12` [Example 110, 2-((1S,4r)-4-((S)-3-Hydroxy-N-methylbutanamido)cyclohexyl)-6-methoxy-N-(pyrazolo[1,5-a]pyrimidin-3-yl)-2H-indazole-5-carboxamide]?
Answer: IC50 [1]: 16 nM; IC50 [2]: 0.9 nM

Question: For `COc1cc2nn([C@H]3CC[C@H](N(C)C(=O)C[C@@H](C)O)CC3)cc2cc1C(=O)Nc1cnn2cccnc12` [Example 111, 2-((1R,4r)-4-((R)-3-Hydroxy-N-methylbutanamido)cyclohexyl)-6-methoxy-N-(pyrazolo[1,5-a]pyrimidin-3-yl)-2H-indazole-5-carboxamide], which IC50 [1] is on record?
Answer: The IC50 was 27 nM.

Question: What about the IC50 [2] of the same compound?
Answer: Its IC50 is 0.9 nM.

Question: `COc1cc2nn([C@H]3CC[C@H](N(C)C(=O)N4CC[C@H](O)C4)CC3)cc2cc1C(=O)Nc1cnc2cccnn12` [Example 116, 2-((1S,4r)-4-((S)-3-Hydroxy-N-methylpyrrolidine-1-carboxamido)cyclohexyl)-N-(imidazo[1,2-b]pyridazin-3-yl)-6-methoxy-2H-indazole-5-carboxamide] was tested. Which IC50 [1] did it give?
Answer: The IC50 was 13 nM.

Question: What about the IC50 [2] of the same compound?
Answer: Its IC50 is 0.3 nM.
